From PubChem BioAssay (NCI)
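Following 48 hours of exposure in 96-well plates, responses at five concentrations were used to interpolate endpoints linearly. TGI: total growth inhibition.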

Key:
Assay in all cases: DTP human tumour cell line panel, 48 h
MCF7 breast = system: MCF7 breast
786-0 renal = system: 786-0 renal
NCI-H460 lung = system: NCI-H460 lung
SF-295 CNS = system: SF-295 CNS
SF-268 CNS = system: SF-268 CNS
NCI-H522 lung = system: NCI-H522 lung
A549 NSCLC = system: A549 NSCLC
SN12C renal = system: SN12C renal
DU-145 prostate = system: DU-145 prostate
LOX IMVI melanoma = system: LOX IMVI melanoma
IGROV1 ovarian = system: IGROV1 ovarian
SW-620 colon = system: SW-620 colon
UO-31 renal = system: UO-31 renal
SF-539 CNS = system: SF-539 CNS
NCI-H226 lung = system: NCI-H226 lung
SK-MEL-28 melanoma = system: SK-MEL-28 melanoma

| SMILES | TGI (MCF7 breast) | TGI (786-0 renal) | TGI (NCI-H460 lung) | TGI (SF-295 CNS) | TGI (SF-268 CNS) | TGI (NCI-H522 lung) | TGI (A549 NSCLC) | TGI (SN12C renal) | TGI (DU-145 prostate) | TGI (LOX IMVI melanoma) | TGI (IGROV1 ovarian) | TGI (SW-620 colon) | TGI (UO-31 renal) | TGI (SF-539 CNS) | TGI (NCI-H226 lung) | TGI (SK-MEL-28 melanoma) |
| --- | --- | --- | --- | --- | --- | --- | --- | --- | --- | --- | --- | --- | --- | --- | --- | --- |
| COc1c(C)c(C/C=C(\C)CCCCO[Si](C(C)C)(C(C)C)C(C)C)c(OC)c2ccccc12 | > 100 µM | > 100 µM | > 100 µM | > 100 µM | > 100 µM | > 100 µM | > 100 µM | > 100 µM | > 100 µM | > 100 µM | > 100 µM | > 100 µM | > 100 µM | > 100 µM | – | – |
| O=C1/C(=C\c2ccc(Cl)cc2Cl)Sc2scc(-c3cccc([N+](=O)[O-])c3)[n+]21 | 15.5 µM | 12.3 µM | 29.7 µM | > 68.9 µM | 57.8 µM | 4.32 µM | 42.3 µM | 18.4 µM | 29 µM | 3.47 µM | 22.5 µM | > 32.2 µM | 13.8 µM | – | 38.2 µM | 59.2 µM |
| COc1ccccc1C1SCC(=O)N1c1ccc(-n2c(-c3ccccc3)nc3ccccc3c2=O)cc1 (centres undefined) | > 100 µM | > 100 µM | > 100 µM | > 100 µM | > 100 µM | > 100 µM | > 100 µM | > 100 µM | > 100 µM | > 100 µM | > 100 µM | > 100 µM | > 100 µM | > 100 µM | > 100 µM | > 100 µM |
| OCC(CN1CCCCC1)(CN1CCCCC1)CN1CCCCC1 | > 100 µM | > 100 µM | > 100 µM | – | > 100 µM | > 100 µM | > 100 µM | > 100 µM | > 100 µM | > 100 µM | > 100 µM | > 100 µM | > 100 µM | > 100 µM | > 100 µM | > 100 µM |
| C/C=C/c1c(O)c(=O)c2c(OC)cc(OC)c3c4c(OC)cc(OC)c5c(=O)c(O)c(/C=C/C)c(c1c23)c54 | > 100 µM | 38.2 µM | 44.3 µM | > 100 µM | 24.6 µM | 16.9 µM | > 100 µM | 41.8 µM | 23.4 µM | 57.4 µM | 19.2 µM | 87.8 µM | 6.33 µM | > 100 µM | 15.8 µM | 36.6 µM |
| CSC1=C(C(=O)Nc2ccc(Cl)cc2)C(N)=NC1=O | > 100 µM | > 100 µM | > 100 µM | – | > 100 µM | > 100 µM | > 100 µM | > 100 µM | > 100 µM | > 100 µM | > 100 µM | > 100 µM | > 100 µM | > 100 µM | > 100 µM | > 100 µM |
| COc1cc(N(CCC#N)CCC#N)ccc1/C=C1\SC(=S)NC1=O | > 100 µM | > 100 µM | > 100 µM | > 100 µM | > 100 µM | > 100 µM | > 100 µM | > 100 µM | > 100 µM | > 100 µM | > 100 µM | > 100 µM | > 100 µM | > 100 µM | > 100 µM | > 100 µM |
| COC(=O)/C=C/c1ccc2c(c1)CCC2 | > 100 µM | > 100 µM | > 100 µM | > 100 µM | > 100 µM | > 100 µM | > 100 µM | – | > 100 µM | > 100 µM | > 100 µM | > 100 µM | > 100 µM | > 100 µM | – | > 100 µM |
| CN(NC(=O)c1ccco1)C1=NCCN1 | > 100 µM | > 100 µM | > 100 µM | > 100 µM | > 100 µM | > 100 µM | > 100 µM | > 100 µM | > 100 µM | > 100 µM | > 100 µM | > 100 µM | > 100 µM | > 100 µM | > 100 µM | > 100 µM |
| CCN(CC)CC(=O)Nc1c(C(N)=O)nnn1Cc1cc(Cl)c(C(=O)c2ccc(Cl)cc2)c(Cl)c1 | 32.4 µM | 31.4 µM | – | 32.9 µM | 45.5 µM | 41.3 µM | 79.6 µM | 50.3 µM | 90.2 µM | 32.1 µM | 74.4 µM | 40.4 µM | 31.2 µM | 31.4 µM | 30.4 µM | 33.3 µM |
| Cc1ccccc1C1CC(=O)CC(c2ccccc2C)C12C(=O)NC(=O)NC2=O (centres undefined) | > 100 µM | > 100 µM | > 100 µM | > 100 µM | > 100 µM | > 100 µM | > 100 µM | > 100 µM | > 100 µM | > 100 µM | > 100 µM | > 100 µM | > 100 µM | > 100 µM | > 100 µM | > 100 µM |
| O=C(Nc1cc(C(=O)Nc2cccc(S(=O)(=O)O)c2)cc(C(=O)Nc2cccc(S(=O)(=O)O)c2)c1)c1cccc(C(=O)Nc2cc(C(=O)Nc3cccc(S(=O)(=O)O)c3)cc(C(=O)Nc3cccc(S(=O)(=O)O)c3)c2)c1 | > 100 µM | > 100 µM | > 100 µM | > 100 µM | > 100 µM | > 100 µM | > 100 µM | > 100 µM | > 100 µM | > 100 µM | > 100 µM | > 100 µM | > 100 µM | > 100 µM | > 100 µM | > 100 µM |
| CCOC(=O)c1c(N)nn2c1cc1cccccc12 | > 100 µM | > 100 µM | 58.6 µM | 86.7 µM | 68.2 µM | 46.7 µM | > 100 µM | > 100 µM | > 100 µM | 72.9 µM | 94.8 µM | > 100 µM | – | > 100 µM | – | 83.3 µM |
| CCCCON1C[C@@H](O)C(O)[C@@H](O)C1 (some centres undefined) | > 100 µM | > 100 µM | > 100 µM | > 100 µM | > 100 µM | > 100 µM | > 100 µM | > 100 µM | > 100 µM | > 100 µM | > 100 µM | > 100 µM | > 100 µM | > 100 µM | > 100 µM | > 100 µM |
